Tests used:
rice = test: Test B flood test rice; format: in vivo, Oryza sativa
Summary of the method: (§1)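 Flood test on plants grown to the 2-leaf stage; treated plants kept in greenhouse twelve to sixteen days, then visually rated against controls on a 0 (no effect) to 10 (complete control) scale.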

bamyardgrass = test: Test B flood test barnyardgrass; format: in vivo, Echinochloa crus-galli
Summary of the method: as §1

soybean = test: Test B pre/postemergence soybean; format: in vivo, Glycine max; conditions: Preemergence
Summary of the method: (§2)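 Response is a visual 0-to-10 score relative to untreated plants, where 0 means no effect and 10 means complete control, taken twelve to sixteen days after application. Treatments went onto soil at planting and onto foliage of 1- to 4-leaf plants, using a surfactant-containing non-phytotoxic solvent.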

wild oat = test: Test B pre/postemergence wild oat; format: in vivo, Avena fatua; conditions: Preemergence
Summary of the method: as §2

purple nutsedge = test: Test B pre/postemergence purple nutsedge; format: in vivo, Cyperus rotundus; conditions: Postemergence
Summary of the method: as §2

morningglory = test: Test B pre/postemergence morningglory; format: in vivo, Ipomoea hederacea
Summary of the method: as §2

corn = test: Test B pre/postemergence corn; format: in vivo, Zea mays
Summary of the method: as §2

bedstraw = test: Test B pre/postemergence bedstraw; format: in vivo, Galium aparine
Summary of the method: as §2

rape = test: Test B pre/postemergence rape; format: in vivo, Brassica napus
Summary of the method: as §2

wheat = test: Test B pre/postemergence wheat; format: in vivo, Triticum aestivum; conditions: Preemergence
Summary of the method: as §2

crabgrass = test: Test B pre/postemergence crabgrass; format: in vivo, Digitaria sanguinalis
Summary of the method: as §2

smallflower flatsedge = test: Test B flood test smallflower flatsedge; format: in vivo, Cyperus difformis
Summary of the method: as §1

giant foxtail = test: Test B pre/postemergence giant foxtail; format: in vivo, Setaria faberii
Summary of the method: as §2

pigweed = test: Test B pre/postemergence pigweed; format: in vivo, Amaranthus retroflexus
Summary of the method: as §2

cocklebur = test: Test B pre/postemergence cocklebur; format: in vivo, Xanthium strumarium
Summary of the method: as §2

velvetleaf = test: Test B pre/postemergence velvetleaf; format: in vivo, Abutilon theophrasti; conditions: Preemergence
Summary of the method: as §2

duck salad = test: Test B flood test duck salad; format: in vivo, Heteranthera limosa
Summary of the method: as §1

sugar beet = test: Test B pre/postemergence sugar beet; format: in vivo, Beta vulgaris; conditions: Preemergence
Summary of the method: as §2

blackgrass = test: Test B pre/postemergence blackgrass; format: in vivo, Alopecurus myosuroides
Summary of the method: as §2

surinam grass = test: Test B pre/postemergence surinam grass; format: in vivo, Brachiaria decumbens
Summary of the method: as §2

[1] = Rate 62 g/ha, headed Pre-emergence (flood test species), scale 0 to 10 (0 no effect, 10 complete control)
[2] = Rate 125 g/ha, Pre-emergence, flood test species, scale 0 to 10 where 0 is no effect and 10 is complete control
[3] = Rate 250 g/ha, Pre-emergence, flood-test species, scale 0 to 10, 0 is no effect, 10 is complete control
[4] = Rate 500 g/ha, Pre-emergence, flood test species, scale 0 to 10 (0 no effect, 10 complete control)
[5] = Rate 31 g/ha, visual rating, scale 0 to 10 (0 no effect, 10 complete control)
[6] = Rate 62 g/ha, scale of 0 to 10 where 0 is no effect and 10 is complete control
[7] = Rate 250 g/ha, scale of 0 to 10 where 0 is no effect and 10 is complete control
[8] = Rate 125 g/ha, scale of 0 to 10 where 0 is no effect and 10 is complete control
[9] = Preemergence, Rate 31 g/ha, visual rating, scale 0 to 10 (0 no effect, 10 complete control)
[10] = Preemergence, Rate 62 g/ha, scale of 0 to 10 where 0 is no effect and 10 is complete control
[11] = Preemergence, Rate 250 g/ha, scale of 0 to 10 where 0 is no effect and 10 is complete control
[12] = Rate 31 g/ha, Postemergence, scale 0 to 10
[13] = Rate 125 g/ha, Preemergence, scale of 0 to 10 where 0 is no effect and 10 is complete control
[14] = Rate 62 g/ha, Postemergence, scale of 0 to 10 where 0 is no effect and 10 is complete control
[15] = Rate 125 g/ha, Postemergence, scale 0 to 10

CCC(=O)Cn1c(=O)on(C(=O)N(c2ccc(F)cc2)C(C)C)c1=O [Compound 252]
6: Plant response rating (0 to 10; 0 is no effect, 10 is complete control), Crabgrass (crabgrass; Rate 250 g/ha, Postemergence)
4: Crabgrass plant response rating (crabgrass; [11]) | Plant response rating (0 to 10; 0 is no effect, 10 is complete control), Giant foxtail (giant foxtail; Rate 250 g/ha, Postemergence) | Blackgrass plant response rating (blackgrass; [11])
10: Giant foxtail plant response rating (giant foxtail; [11])
5: Plant response rating (0 to 10; 0 is no effect, 10 is complete control), Blackgrass (blackgrass; Rate 250 g/ha, Postemergence)
0: Rice plant response rating (rice; [1]) | Rice plant response rating (rice; [2]) | Rice plant response rating (rice; [3]) | Rice plant response rating (rice; [4]) | Barnyardgrass plant response rating (bamyardgrass; [1]) | Barnyardgrass plant response rating (bamyardgrass; [2]) | Barnyardgrass plant response rating (bamyardgrass; [3]) | Barnyardgrass plant response rating (bamyardgrass; [4]) | Soybean plant response rating (soybean; [5]) | Soybean plant response rating (soybean; [6]) | Soybean plant response rating (soybean; [7]) | Soybean plant response rating (soybean; [8]) | Wild oats plant response rating (wild oat; [5]) | Wild oats plant response rating (wild oat; [6]) | Wild oats plant response rating (wild oat; [8]) | Nutsedge plant response rating (purple nutsedge; Rate 31 g/ha, scale 0 to 10) | Plant response rating (0 to 10; 0 is no effect, 10 is complete control), Nutsedge (purple nutsedge; Rate 250 g/ha) | Morningglory plant response rating (morningglory; [9]) | Morningglory plant response rating (morningglory; [10]) | Morningglory plant response rating (morningglory; [11]) | Morningglory plant response rating (morningglory; [13]) | Corn plant response rating (corn; [9]) | Corn plant response rating (corn; [10]) | Corn plant response rating (corn; [11]) | Corn plant response rating (corn; [12]) | Corn plant response rating (corn; [14]) | Corn plant response rating (corn; [15]) | Corn plant response rating (corn; [13]) | Plant response rating (0 to 10; 0 is no effect, 10 is complete control), Corn (corn; Rate 250 g/ha, Postemergence) | Bedstraw plant response rating (bedstraw; [9]) | Bedstraw plant response rating (bedstraw; [10]) | Bedstraw plant response rating (bedstraw; [11]) | Bedstraw plant response rating (bedstraw; [12]) | Bedstraw plant response rating (bedstraw; [14]) | Bedstraw plant response rating (bedstraw; [15]) | Bedstraw plant response rating (bedstraw; [13]) | Plant response rating (0 to 10; 0 is no effect, 10 is complete control), Bedstraw (bedstraw; Rate 250 g/ha, Postemergence) | Rape plant response rating (rape; [9]) | Rape plant response rating (rape; [10]) | Rape plant response rating (rape; [12]) | Rape plant response rating (rape; [13]) | Plant response rating (0 to 10; 0 is no effect, 10 is complete control), Rape (rape; Rate 250 g/ha, Postemergence) | Wheat plant response rating (wheat; [5]) | Wheat plant response rating (wheat; [6]) | Wheat plant response rating (wheat; [8]) | Crabgrass plant response rating (crabgrass; [9]) | Crabgrass plant response rating (crabgrass; [10]) | Crabgrass plant response rating (crabgrass; [12]) | S. Flatsedge plant response rating (smallflower flatsedge; [1]) | S. Flatsedge plant response rating (smallflower flatsedge; [2]) | S. Flatsedge plant response rating (smallflower flatsedge; [3]) | S. Flatsedge plant response rating (smallflower flatsedge; [4]) | Giant foxtail plant response rating (giant foxtail; [12]) | Redroot pigweed plant response rating (pigweed; [9]) | Redroot pigweed plant response rating (pigweed; [10]) | Redroot pigweed plant response rating (pigweed; [11]) | Redroot pigweed plant response rating (pigweed; [12]) | Redroot pigweed plant response rating (pigweed; [13]) | Plant response rating (0 to 10; 0 is no effect, 10 is complete control), Redroot pigweed (pigweed; Rate 250 g/ha, Postemergence) | Cocklebur plant response rating (cocklebur; [9]) | Cocklebur plant response rating (cocklebur; [10]) | Cocklebur plant response rating (cocklebur; [12]) | Cocklebur plant response rating (cocklebur; [14]) | Cocklebur plant response rating (cocklebur; [15]) | Cocklebur plant response rating (cocklebur; [13]) | Plant response rating (0 to 10; 0 is no effect, 10 is complete control), Cocklebur (cocklebur; Rate 250 g/ha, Postemergence) | Velvetleaf plant response rating (velvetleaf; [5]) | Velvetleaf plant response rating (velvetleaf; [6]) | Velvetleaf plant response rating (velvetleaf; [8]) | Ducksalad plant response rating (duck salad; [1]) | Ducksalad plant response rating (duck salad; [2]) | Ducksalad plant response rating (duck salad; [3]) | Ducksalad plant response rating (duck salad; [4]) | Sugarbeets plant response rating (sugar beet; [5]) | Sugarbeets plant response rating (sugar beet; [6]) | Blackgrass plant response rating (blackgrass; [9]) | Blackgrass plant response rating (blackgrass; [10]) | Blackgrass plant response rating (blackgrass; [12]) | Blackgrass plant response rating (blackgrass; [14]) | B. signalgrass plant response rating (surinam grass; [9]) | B. signalgrass plant response rating (surinam grass; [10]) | B. signalgrass plant response rating (surinam grass; [11]) | B. signalgrass plant response rating (surinam grass; [12]) | B. signalgrass plant response rating (surinam grass; [14]) | B. signalgrass plant response rating (surinam grass; Rate 125 g/ha, Postemergence, scale 0 (no effect) to 10 (complete control)) | B. signalgrass plant response rating (surinam grass; [13]) | Plant response rating (0 to 10; 0 is no effect, 10 is complete control), B. signalgrass (surinam grass; Rate 250 g/ha, Postemergence)
9: Giant foxtail plant response rating (giant foxtail; [13])
2: Morningglory plant response rating (morningglory; [12]) | Wheat plant response rating (wheat; [7]) | Crabgrass plant response rating (crabgrass; [13]) | Velvetleaf plant response rating (velvetleaf; [7]) | Blackgrass plant response rating (blackgrass; [15]) | Blackgrass plant response rating (blackgrass; [13])
3: Wild oats plant response rating (wild oat; [7]) | Plant response rating (0 to 10; 0 is no effect, 10 is complete control), Morningglory (morningglory; Rate 250 g/ha, Postemergence) | Rape plant response rating (rape; [11]) | Giant foxtail plant response rating (giant foxtail; [9]) | Giant foxtail plant response rating (giant foxtail; [10]) | Sugarbeets plant response rating (sugar beet; [7]) | Sugarbeets plant response rating (sugar beet; [8])

— US6737383B1, “Herbicidal oxadiazolidines” (priority 1999, dated 2004)
